Read-outs that look alike come from different tables or passages of the source.
How the values were obtained:
[1] = Approximate retention times in oral tissues
Excerpt: The approximate retention times in oral tissues of six alkaloids found in extracts from Sanguinaria canadensis is shown in Table IV.

[2] = Visual plaque disclosure scoring in healthy volunteers (Table I); format: in vivo; conditions: for Mean Plaque Area Score, 1 Hour later / Mean Plaque Area Score, Baseline: visual assessment
Method: Sanguinarine chloride was compared to two standard disclosing dyes, erythrosine and sodium fluorescein. At weekly interval healthy volunteers underwent a 12-24 hour, no oral hygiene period. Subjects then used one of the following: erythrosine, sodium flourescein, or sanguinarine chloride. Subjects rinsed two times with 15 ml. of the rinse, while the erythrosine and sodium fluorescein were used according to customary practice. Color was evaluated under ambient light after erythrosine, under ambient light for sodium fluorescein, and under longwave UV fluorescent light for sanguinarine. The color was scored for location, amount, and area.
All of the disclosing agents colored soft dental deposits at gingival margins and at the dorsal surface of the tongue. […] Mean values of plaque were measured for all disclosants.
(§1) This was the oral rinse used for the tests described in Tables I, II, and III.

variety of microorganism = assay: Antimicrobial properties (general statement); format: cell-based
[3] = tested on: human dental plaque forming microorganisms; assay: Reduction of dental plaque / inactivation of plaque forming microorganisms in vitro; format: cell-based
[4] = format: in vivo
Excerpt: This would indicate that the retention of sanguinarine in plaque may be responsible for its clinical effectiveness in plaque assays, and that plaque may serve as a reservoir for sanguinarine.
as §1

[5] = In vivo plaque retention of sanguinarine (HPLC)
Excerpt: as §1

[6] = alkaloids found in extracts from Sanguinaria canadensis
[7] = human, in vivo, po, In Vivo Plaque Retention of Sanguinarine

SMILES: COc1ccc2c(c[n+](C)c3c4cc5c(cc4ccc23)OCO5)c1OC [Chelerythrine]
- Approximate Retention time (in oral tissues) [1]: 16.5 to 17.0 min

SMILES: COc1cc(OC)c2c(c[n+](C)c3c4cc5c(cc4ccc23)OCO5)c1OC [Chelilutine]
- Approximate Retention time (in oral tissues) [1, 6]: 15.5 to 16.0 min

SMILES: COc1cc2c(c3c[n+](C)c4c5cc6c(cc5ccc4c13)OCO6)OCO2 [Chelirubine]
- Approximate Retention time (in oral tissues) [1, 6]: ~7.5 min

SMILES: O=C1OC2(c3ccccc31)c1cc(I)c(O)c(I)c1Oc1c2cc(I)c(O)c1I [Erythrosine, reference compound]
- Mean Plaque Area Score, 1 Hour later [2]: 2.18 ± 0.5
- Mean Plaque Area Score, Baseline [2]: 2.86 ± 0.43

SMILES: COc1cc2ccc3c4c(OC)cc(OC)c(OC)c4c[n+](C)c3c2cc1OC [Sanguilutine]
- Approximate Retention time (in oral tissues) [1, 6]: 18.5 to 19.0 min

SMILES: C[n+]1cc2c3c(ccc2c2ccc4cc5c(cc4c21)OCO5)OCO3 [Sanguinarine chloride]
- antimicrobial properties (variety of microorganism): strong antimicrobial properties
- killing at 25 µg/mL ([3]; Homo sapiens, 25 micrograms per milliliter, read-out: reduction of dental plaque by inactivating plaque forming microorganisms): 100%
- comparison with chlorhexidine in inhibition of human dental plaque forming microorganisms ([3]; in vitro, versus chlorhexidine (Hibitane)): compated favorably in vitro with chlorhexidine
- plaque disclosure ([2]; sanguinarine chloride mouthwash): disclosed plaque effectively
- duration of disclosure ([2]; versus erythrosine and sodium fluorescein): lasted significantly longer than for the other two disclosing dyes
- Mean Plaque Area Score, 1 Hour later [2]: 2.86 ± 0.26
- Mean Plaque Area Score, Baseline [2]: 2.87 ± 0.23

SMILES: C[n+]1cc2c3c(ccc2c2ccc4cc5c(cc4c21)OCO5)OCO3 [Sanguinarine]
- levels in saliva relative to anti-glycolytic effect [4]: high enough to exert an anti-glycolytic effect on saliva
- Approximate Retention time (in oral tissues) [1, 6]: 9.5 to 10.0 min
- level in plaque versus in vitro minimum inhibitory concentrations ([5]; HPLC, plaque): much higher in vitro minimum inhibitory concentrations
- In Vivo Plaque Retention of Sanguinarine ([5]; human, in vivo, po, 1 h): 46 ug/g of wet plaque
- concentration at 1 h [5, 7]: 56000 ng/g
- concentration at 2 h [5, 7]: 27000 ng/g

SMILES: COc1cc2ccc3c4c(OC)cc5c(c4c[n+](C)c3c2cc1OC)OCO5 [Sanguirubine]
- Approximate Retention time (in oral tissues) [1, 6]: 12.5 to 13.0 min

SMILES: O=C1OC2(c3ccc(O)cc3Oc3cc(O)ccc32)c2ccccc21 [Sodium Fluorescein, reference compound]
- Mean Plaque Area Score, 1 Hour later [2]: 1.74 ± 0.45
- Mean Plaque Area Score, Baseline [2]: 2.84 ± 0.22
